Measurements as given in patent US8637665B2, “Pyrrolo[2,L-C][L,4]benzodiazepine-benzothiazole or benzoxazole conjugates linked through piperazine moiety and process for the preparation thereof” (priority 2010, dated 2014).
Read-outs that look alike come from different tables or passages of the source.

Columns and labels:
[1] = system: duplex-form calf thymus DNA (CT-DNA); test: Thermal denaturation studies with calf thymus DNA (DNA binding affinity); conditions: [PBD]:[DNA] 1:5, CT-DNA 100 μM, ligand 20 μM, pH 7.00
Description: Compounds have been subjected to thermal denaturation studies with duplex-form calf thymus DNA (CT-DNA) using an modification of a reported procedure (Newman, M. S. Carcinog-compr. Surv. 1976,1, 203; (b) Hecht, S. S.; Loy, M.; Hoffman, Carcinog-compr. Surv. 1976, 1, 325). Working solutions in aqueous buffer (10 mM NaH2PO4/Na2HPO4, 1 mM Na2EDTA, pH 7.00+0.01) containing CT-DNA (100 μm in phosphate) and the PBD (20 μm) have been prepared by addition of concentrated PBD solutions in DMSO to obtain a fixed [PBD]/[DNA] molar ratio of 1:5. The DNA-PBD solutions have been incubated at 37° C. for 0 and 18 h prior to analysis. Samples have been monitored at 260 using a Beckman DU-800 spectrophotometer fitted with high performance temperature controller, and heated at 1° C. min^−1 in the 40-110° C. range. DNA helix→coil transition temperatures (Tm) have been obtained from the maxima in the d(A260)/dT derivative plots. Drug-induced alterations in DNA melting behavior are given by: ΔTm=Tm(DNA+PBD)−Tm(DNA alone), where the Tm value for the PBD-free CT-DNA is 69.1±0.01.
The DNA binding activity for these novel C8-linked benzothiazole, benzoxazole-PBD hybrids has been examined by thermal denaturation studies using calf thymus (CT) DNA. […] The data for the compounds 9a-n is included in Table 7 for comparison.

[2] = system: KB (oral cancer) cell line; test: In vitro anticancer activity, SRB assay, KB; assay type: cell-based, human; conditions: for GI50: mean of three determinations; for CC50: read-out: LC50 KB, 50% cell death
Description: (§1) Anticancer activity: In vitro biological activity studies were carried out at the Advance Center for Treatment Research & Education in Cancer (ACTREC), Navi Mumbai.
(§2) The compounds were evaluated for in vitro anticancer activity against eight tumour cells lines derived from seven cancer types (non-small-cell lung, colon, oral, cervix, ovarian, prostate, and breast cancer) as shown in Table 2. For each compound, dose response curves for each cell line were measured at a minimum of five concentrations at 10 fold dilutions. A protocol of 48 h continuous drug exposure was used and a sulforhodamine B (SRB) protein assay was used to estimate cell viability or growth. The concentration causing 50% cell growth inhibition (GI50) and 50% cell death (LC50, −50% growth) compared with the control was calculated. Compounds 9a-9l have been evaluated for their in vitro cytotoxicity in eight cell lines from seven human cancer types of lung (Hop-62, A-549) colon (COLO-205) cervix (Si—Ha), ovary (A-2780), prostate (PC3) breast (MCF7), oral (KB). The results are expressed as percent of cell growth determined relative to that of untreated control cells (Table-8 and table-9).

[3] = system: eight tumour cells lines derived from seven cancer types; test: In vitro anticancer activity, SRB assay, panel of eight cell lines; assay type: cell-based; conditions: Homo sapiens, range over the eight cell lines per compound; read-out: GI50 range against cancer cell lines
Description: as §1, §2

[4] = system: SiHa (cervix cancer) cell line; test: cells; assay type: cell-based; conditions: for GI50: mean of three determinations; for LC50 (concentration causing 50% cell death): read-out: LC50 SiHa, 50% cell death
Description: as §1, §2

[5] = system: A 2780 (ovary cancer) cell line; test: cells; assay type: cell-based; conditions: for GI50: mean of three determinations; for CC50: read-out: LC50 A 2780, 50% cell death
Description: as §1, §2

[6] = system: MCF 7 (breast cancer) cell line; test: cells; assay type: cell-based; conditions: for GI50: read-out: GI50 MCF 7; for LC50 (concentration causing 50% cell death): read-out: LC50 MCF 7, 50% cell death
Description: as §1, §2

[7] = system: A 549 (lung cancer) cell line; test: cells; assay type: cell-based; conditions: for GI50: mean of three determinations
Description: as §1, §2

[8] = system: HOP 62 (lung cancer) cell line; test: cells; assay type: cell-based; conditions: for GI50: mean of three determinations; for LC50: read-out: LC50 HOP 62, 50% cell death
Description: as §1, §2

[9] = system: Colo 205 (colon cancer) cell line; test: cells; assay type: cell-based; conditions: for GI50: mean of three determinations; for CC50: read-out: LC50 Colo 205
Description: as §1, §2

[10] = system: PC 3 (prostate cancer) cell line; test: cells; assay type: cell-based; conditions: for GI50: read-out: GI50 PC 3; for CC50: read-out: LC50 Pc 3, 50% cell death
Description: as §1, §2

[11] = Homo sapiens, 48 h, read-out: GI50 KB, 48 h drug exposure, SRB
[12] = Homo sapiens, 48 h, 48 h drug exposure, SRB
[13] = Homo sapiens, SiHa, 48 h, read-out: GI50 SiHa, 48 h drug exposure, SRB
[14] = Homo sapiens, SiHa, 48 h, 48 h drug exposure, SRB
[15] = Homo sapiens, A2780, 48 h, read-out: GI50 A 2780, 48 h drug exposure, SRB
[16] = Homo sapiens, A2780, 48 h, 48 h drug exposure, SRB
[17] = Homo sapiens, MCF7, 48 h, 48 h drug exposure, SRB
[18] = Homo sapiens, A549, 48 h, read-out: GI50 A 549, 48 h drug exposure, SRB
[19] = Homo sapiens, A549, 48 h, read-out: LC50 A 549, 50% cell death, 48 h drug exposure, SRB
[20] = Homo sapiens, HOP-62, 48 h, read-out: GI50 HOP 62, 48 h drug exposure, SRB
[21] = Homo sapiens, HOP-62, 48 h, 48 h drug exposure, SRB
[22] = Homo sapiens, COLO 205, 48 h, read-out: GI50 Colo 205, 48 h drug exposure, SRB
[23] = read-out: GI50 HOP 62, 48 h drug exposure, SRB
[24] = 48 h drug exposure, SRB, mean of three determinations

| SMILES | ΔTm after incubation at 37° C. for 0 h [1] | ΔTm after incubation at 37° C. for 18 h [1] | GI50 [2, 11] | CC50 [2, 12] | GI50 [3] | GI50 [4, 13] | LC50 (concentration causing 50% cell death) [4, 14] | GI50 [5, 15] | CC50 [5, 16] | GI50 ([6]; Homo sapiens, MCF7, 48 h) | LC50 (concentration causing 50% cell death) [6, 17] | GI50 [7, 18] | CC50 [7, 19] | GI50 [8, 20] | LC50 [8, 21] | GI50 [9, 22] | CC50 ([9]; Homo sapiens, COLO 205, 48 h) | GI50 ([10]; Homo sapiens, 48 h) | CC50 [10, 12] | GI50 [8, 23] | further results |
| --- | --- | --- | --- | --- | --- | --- | --- | --- | --- | --- | --- | --- | --- | --- | --- | --- | --- | --- | --- | --- | --- |
| COc1cc2c(cc1OCCCCN1CCN(CCCCOc3ccc(-c4nc5ccc(F)cc5s4)cc3)CC1)N=C[C@@H]1CCCN1C2=O [Compound 9g, 7-Methoxy-8-[4-(4-{4-[4(6-fluoro-1,3-benzothiazol-2-yl)-phenoxy]butyl}piperazin-1-yl)butyl]oxy-(11aS)-1,2,3,11a-tetrahydro-5H-pyrrolo[2,1-c][1,4]benzodiazepin-5-one] | 12.3 °C | 12.6 °C | 160 nM | > 100000 nM | ≤ 168 nM | 168 nM | 311 nM | 147 nM | 2250 nM | 140 nM | 2400 nM | < 10 nM | > 100000 nM | 160 nM | > 100000 nM | 100 nM | > 100000 nM | 160 nM | 31000 nM |  |  |
| COc1cc2c(cc1OCCCN1CCN(CCCOc3ccc(-c4nc5ccccc5o4)cc3)CC1)N=C[C@@H]1CCCN1C2=O [Compound 9i] | 9.5 °C | 9.7 °C | < 10 nM | 28000 nM | ≤ 117 nM | 117 nM | 28500 nM | 80 nM | 2250 nM | < 10 nM | 150 nM | < 10 nM | > 100000 nM | 110 nM | 27000 nM | < 10 nM | > 100000 nM | < 10 nM | 230 nM |  |  |
| COc1cc(-c2nc3ccccc3o2)ccc1OCCCN1CCN(CCCOc2cc3c(cc2OC)C(=O)N2CCC[C@H]2C=N3)CC1 [Compound 9j] | 10.1 °C | 10.3 °C | < 10 nM | 200 nM | ≤ 110 nM | < 10 nM | 28000 nM | < 10 nM | 139 nM | < 10 nM | < 10 nM | < 10 nM | > 100000 nM | < 10 nM | 2300 nM | 110 nM | > 100000 nM | < 10 nM | 2500 nM |  |  |
| COc1cc2c(cc1OCCCN1CCN(CCCOc3cccc(-c4nc5ccccc5o4)c3)CC1)N=C[C@@H]1CCCN1C2=O [Compound 9k, 7-Methoxy-8-[3-(4-{3-[3(1,3-benzoxazol-2-yl)-phenoxy]propyl}piperazin-1-yl)propyl]oxy-(11aS)-1,2,3,11a-tetrahydro-5H-pyrrolo[2,1-c][1,4]benzodiazepin-5-one] | 9.7 °C | 10.2 °C | 110 nM |  | ≤ 170 nM | 130 nM | 27800 nM | 86 nM | 2160 nM | < 10 nM | 2600 nM | < 10 nM | > 100000 nM |  | 25000 nM | 170 nM | > 100000 nM | < 10 nM | 26000 nM | 10 nM |  |
| COc1cc2c(cc1OCCCCN1CCN(CCCCOc3ccc(-c4nc5ccccc5s4)cc3)CC1)N=C[C@@H]1CCCN1C2=O [Compound 9l, 7-Methoxy-8-[4-(4-{4-[4(1,3-benzothiazol-2-yl)-phenoxy]butyl}piperazin-1-yl)butyl]oxy-(11aS)-1,2,3,11a-tetrahydro-5H-pyrrolo[2,1-c][1,4]benzodiazepin-5-one] | 11.5 °C | 11.8 °C |  | 2000 nM | ≤ 125 nM |  | 28000 nM |  | 2100 nM |  | 160 nM |  |  |  |  |  | > 100000 nM |  | 2100 nM | 110 nM | GI50 ([2]; 48 h drug exposure, SRB, listed as 91, read-out: GI50 KB): 110 nM; GI50 ([2]; 48 h drug exposure, SRB, read-out: GI50 KB): 110 nM; GI50 ([4]; read-out: GI50 SiHa, 48 h drug exposure, SRB): 125 nM; GI50 ([5]; read-out: GI50 A 2780, 48 h drug exposure, SRB): 99 nM; GI50 [6, 24]: < 10 nM; CC50 ([7]; human, 48 h): 30000 nM; GI50 ([7]; read-out: GI50 A 549, 48 h drug exposure, SRB): < 10 nM; CC50 ([8]; human, 48 h): 2500 nM; GI50 ([9]; read-out: GI50 Colo 205, 48 h drug exposure, SRB): < 10 nM; GI50 [10, 24]: < 10 nM |
